From article PMC5053523, “In Vitro Antibacterial Activity of Rhodanine Derivatives against Pathogenic Clinical Isolates” (PLoS ONE, 2016)
Converted amounts (≈) assume the structure as drawn. Where two headings read alike, the source gives them in different places.

Experiments:
[1] = tested on: vancomycin resistant enterococci (VRE); experiment: Broth microdilution MIC50/MIC90, VRE panel; format: cell-based; settings: 10 VRE strains; for MIC90: read-out: MIC 90
[2] = tested on: Bacillus anthracis; experiment: microbe, parasite or virus in culture; format: cell-based
[3] = tested on: B. licheniformis; experiment: Broth microdilution MIC/MBC, B. licheniformis; format: cell-based; settings: Bacillus licheniformis; for MBC: read-out: MBC; for MIC: read-out: MIC
[4] = tested on: Bacillus Strains; experiment: Broth microdilution MIC50/MIC90 and MIC range, Bacillus strains panel; format: cell-based, Bacillus spp.; settings: 10 Bacillus strains
Description: The broth microdilution technique was used, followed by subculturing on agar plates that were rhodanine—free. […] The MICs reported represent the lowest concentration of each compound necessary to inhibit bacterial growth and the MBCs represent the lowest concentration required to reduce the initial bacterial inoculum by ≥ 99.9%.

[5] = tested on: Clostridium difficile; experiment: MIC against Clostridium difficile, anaerobic broth dilution; format: cell-based; settings: Clostridioides difficile
Method in brief: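 Clinical C. difficile isolates grown anaerobically 48 h at 37 °C, suspended to 0.5 McFarland and diluted 1:300 in pre-reduced supplemented Brain Heart Infusion broth. Compounds serially diluted; plates incubated anaerobically at 37 °C for 48 h. MIC = lowest concentration with no visible growth.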

[6] = tested on: P. aeruginosa; experiment: Broth microdilution MIC, P. aeruginosa; format: cell-based; settings: Pseudomonas aeruginosa
[7] = tested on: K. pneumoniae; experiment: Broth microdilution MIC, K. pneumoniae; format: cell-based
[8] = tested on: Candida albicans; experiment: MIC against Candida albicans; format: cell-based; settings: table prints none, read-out: MIC
[9] = tested on: MRSA USA300; experiment: MIC against MRSA USA300 with and without 4% human serum albumin; format: cell-based, Staphylococcus aureus; settings: Staphylococcus aureus, read-out: MIC against MRSA USA300
Method in brief: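 Broth microdilution MIC per CLSI against MRSA USA300, run in tryptic soy broth alone and with 4% human serum albumin. MIC is the lowest concentration inhibiting growth.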

[10] = tested on: Escherichia coli O157:H7; experiment: MIC with/without sub-MIC colistin, Escherichia coli O157:H7; format: cell-based
Method in brief: (§1)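 MIC of rhodanines and control antibiotics measured against Gram-negative bacteria in the presence of a sub-inhibitory concentration of colistin or polymixin B nonapeptide (PMBN). Activity was also tested against E. coli SM1411ΔacrAB, which lacks the AcrAB multidrug efflux pump.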

[11] = tested on: Salmonella Typhimurium; experiment: MIC with/without sub-MIC colistin, Salmonella Typhimurium; format: cell-based
Method in brief: as §1

[12] = tested on: Pseudomonas aeruginosa; experiment: MIC with/without sub-MIC colistin, Pseudomonas aeruginosa; format: cell-based
Method in brief: as §1

[13] = tested on: Acinetobacter baumannii; experiment: MIC with/without PMBN, Acinetobacter baumannii; format: cell-based
Method in brief: as §1

[14] = tested on: Escherichia coli O157:H7; experiment: MIC with/without PMBN, Escherichia coli O157:H7; format: cell-based
Method in brief: as §1

[15] = tested on: Salmonella Typhimurium; experiment: MIC with/without PMBN, Salmonella Typhimurium; format: cell-based
Method in brief: as §1

[16] = tested on: Klebsiella pneumoniae; experiment: MIC with/without PMBN, Klebsiella pneumoniae; format: cell-based
Method in brief: as §1

[17] = tested on: Pseudomonas aeruginosa; experiment: MIC with/without PMBN, Pseudomonas aeruginosa; format: cell-based
Method in brief: as §1

[18] = NCIB9375, B. licheniformis Gibson 46 (NCIB 9375) NR-2494
[19] = NRS712, B. licheniformis NRS 712 NR-2499
[20] = Salmonella enterica, ATCC 700720 / TYPHIMURIUM

O=C(O)[C@H](Cc1ccccc1)N1C(=O)/C(=C/c2cccc(-c3ccc(Cl)c(Cl)c3)c2)SC1=S [Rh 2]
MIC90 [1]: 4 µM (≈ 2.06 µg/mL) | MIC90 ([1]; Enterococcus, VRE): 8 µM (≈ 4.12 µg/mL) | MIC50 ([1]; Enterococcus, read-out: MIC 50): 4 µM (≈ 2.06 µg/mL) | MBC ([2]; Bacillus anthracis AMES35): 2 µM (≈ 1.03 µg/mL) | MIC ([2]; Bacillus anthracis AMES35): 2 µM (≈ 1.03 µg/mL) | MBC ([2]; Bacillus anthracis UM23): 2 µM (≈ 1.03 µg/mL) | MIC ([2]; Bacillus anthracis UM23): 2 µM (≈ 1.03 µg/mL) | MBC ([2]; Bacillus anthracis Weybridge): 2 µM (≈ 1.03 µg/mL) | MIC ([2]; Bacillus anthracis Weybridge): 2 µM (≈ 1.03 µg/mL) | MBC [3, 18]: 2 µM (≈ 1.03 µg/mL) | MIC [3, 18]: 2 µM (≈ 1.03 µg/mL) | MBC [3, 19]: 4 µM (≈ 2.06 µg/mL) | MIC [3, 19]: 4 µM (≈ 2.06 µg/mL) | MIC50 [4]: 2 µM (≈ 1.03 µg/mL) | MIC90 [4]: 4 µM (≈ 2.06 µg/mL) | MIC ([5]; C. difficile HM-88): 4 µM (≈ 2.06 µg/mL) | MIC ([5]; C. difficile HM-745): 2 µM (≈ 1.03 µg/mL) | MIC ([5]; C. difficile HM-746): 2 µM (≈ 1.03 µg/mL) | MIC ([5]; C. difficile Isolate-1 NR-13427): 2 µM (≈ 1.03 µg/mL) | MIC ([5]; C. difficile Toxigenic Strain P8 NR-32888): 8 µM (≈ 4.12 µg/mL) | MIC ([6]; ATCC9721): > 128 µM | MIC ([6]; ATCC15442): > 128 µM | MIC ([7]; K. pneumoniae NR-15417): >128 µM | MIC ([7]; Klebsiella pneumoniae): > 128 µM | MIC ([8]; ATCC10231, C. albicans ATCC 10231, unit from abstract): > 64 µM | MIC ([8]; C. albicans NR 29434, unit from abstract): > 64 µM | MIC ([8]; C. albicans NR 29435, unit from abstract): > 64 µM | MIC ([8]; C. albicans NR29437, unit from abstract): > 64 µM | MIC ([8]; C. albicans NR29438, unit from abstract): > 64 µM | MIC ([8]; C. albicans NR 29446, unit from abstract): > 64 µM | MIC ([8]; C. albicans NR 29448, unit from abstract): > 64 µM | MIC ([8]; C. albicans NR 29449, unit from abstract): > 64 µM | MIC ([8]; C. albicans NR 29453, unit from abstract): > 64 µM | MIC ([8]; C. albicans NR 294436, unit from abstract): > 64 µM | MIC ([9]; 24 h, Media TSB + 4% HSA): > 64 µM | MIC ([9]; Media TSB): 4 µM (≈ 2.06 µg/mL) | MIC ([10]; Escherichia coli O157:H7 ATCC 35150, colistin (+) […], read-out: MIC): >64 µM | MIC ([10]; Escherichia coli O157:H7 ATCC 700728, colistin (+) […], read-out: MIC): >64 µM | MIC ([10]; Escherichia coli, ATCC35150): > 128 µM | MIC ([10]; Escherichia coli, ATCC700728): > 128 µM | MIC ([11]; Salmonella Typhimurium ATCC 700720, colistin (+) […], read-out: MIC): >64 µM | MIC [11, 20]: > 128 µM | MIC ([12]; Pseudomonas aeruginosa ATCC 921, colistin (+) […], read-out: MIC): >64 µM | MIC ([12]; Pseudomonas aeruginosa, ATCC921): > 128 µM | MIC ([13]; Acinetobacter baumannii ATCC BAA747, PMBN (+) 4 μg/mL, read-out: MIC): >64 µM | MIC ([13]; Acinetobacter baumannii ATCC BAA19606, PMBN (+) 4 μg/mL, read-out: MIC): >64 µM | MIC ([13]; Acinetobacter baumannii, ATCCBAA747): > 128 µM | MIC ([13]; Acinetobacter baumannii, ATCCBAA19606): > 128 µM | MIC ([14]; Escherichia coli O157:H7 ATCC 35150, PMBN (+) 4 μg/mL, read-out: MIC): 8 µM (≈ 4.12 µg/mL) | MIC ([14]; Escherichia coli O157:H7 ATCC 700728, PMBN (+) 4 μg/mL, read-out: MIC): >64 µM | MIC ([14]; Escherichia coli, ATCC35150): > 256 µM | MIC ([14]; Escherichia coli, ATCC700728): > 128 µM | MIC ([15]; Salmonella Typhimurium ATCC 700720, PMBN (+) 4 μg/mL, read-out: MIC): >128 µM | MIC [15, 20]: > 128 µM | MIC ([16]; Klebsiella pneumoniae ATCC BAA 1706, PMBN (+) 4 μg/mL): >64 µM | MIC ([16]; Klebsiella pneumoniae ATCC BAA 2146, PMBN (+) 4 μg/mL): >64 µM | MIC ([16]; Klebsiella pneumoniae, BAA1706): > 128 µM | MIC ([16]; Klebsiella pneumoniae, BAA2146): > 128 µM | MIC ([17]; Pseudomonas aeruginosa ATCC 9721, PMBN (+) 4 μg/mL, read-out: MIC): >64 µM | MIC ([17]; Pseudomonas aeruginosa, ATCC9721): > 128 µM
